Data set [1] can be described thus: Intrinsic clearance in human liver microsomes. In kind it is ADME. The settings on record: read-out: CLH.
Data set [2] in a line: AUClast in C57BL/6 mouse plasma at 10 mg/kg administered through oral gavage. In kind it is ADME, organism-based. Set-up: dose 10 mg/kg, time 0 - last, route oral.
A short description of data set [3]: Cmax in C57BL/6 mouse brain at 10 mg/kg administered through oral gavage. The data set is classed as ADME, organism-based. Set-up: dose 10 mg/kg, route oral.
A short description of data set [4]: Lipophilicity, logD of compound at pH 7.4. In kind it is physicochemical. Conditions: buffer.
Data set [5] concerns Rattus norvegicus. The experiment in a line: Increase in cognitive performance in ip dosed Sprague-Dawley rat after 60 mins by novel object recognition test. The data set is classed as functional. The settings on record: 1 h, read-out: MED.
Data set [6] is described as follows: Tmax in Sprague-Dawley rat at 9.75 mg/kg administered through oral gavage. The data set is classed as ADME, organism-based. Conditions: in vivo.
Data set [7] can be described thus: AUClast in C57BL/6 mouse brain at 10 mg/kg administered through oral gavage. In kind it is ADME, organism-based. Further details: dose 10 mg/kg, time 0 - last, route oral.
The nature of data set [8]: AUC(infinity) in Sprague-Dawley rat at 9.75 mg/kg administered through oral gavage. In kind it is ADME, organism-based. Set-up: dose 9.75 mg/kg, route oral, time infinity. The settings on record: in vivo.
A short description of data set [9]: Lipophilicity, logD of compound at pH 1.7. In kind it is physicochemical. Conditions: buffer.
A short description of data set [10]: Inhibition of bovine brain PDE1 using fluorescent labeled cGMP as substrate after 15 mins by IMAP assay. Further details: species or system Bos taurus.
Data set [11] in a line: Solubility of compound in PBS. The data set is classed as physicochemical.
Data set [12] addresses cGMP-specific 3',5'-cyclic phosphodiesterase (Homo sapiens, UniProt O76074). Briefly: Inhibition of recombinant full lenght human PDE5A using fluorescent labeled cGMP as substrate after 15 mins by IMAP assay.
A short description of data set [13]: Half time in Sprague-Dawley rat at 1 mg/kg, iv. In kind it is ADME, organism-based. Conditions: in vivo.
The nature of data set [14]: Oral bioavailability in Sprague-Dawley rat at 9.75 mg/kg administered through gavage. In kind it is ADME, organism-based. The settings on record: in vivo.
A short description of data set [15]: Clearance in Sprague-Dawley rat at 1 mg/kg, iv. Conditions: in vivo. In kind it is ADME, organism-based.
The nature of data set [16]: Half time in Sprague-Dawley rat at 9.75 mg/kg administered through oral gavage. In kind it is ADME, organism-based. Conditions: in vivo.
A short description of data set [17]: Cmax in Sprague-Dawley rat at 9.75 mg/kg administered through oral gavage. The data set is classed as ADME, organism-based. Set-up: dose 9.75 mg/kg, route oral. The settings on record: in vivo.
The nature of data set [18]: Volume of distribution in Sprague-Dawley rat at 1 mg/kg, iv. The data set is classed as ADME, organism-based. The settings on record: in vivo.
Data set [19] can be described thus: AUC(infinity) in Sprague-Dawley rat at 1 mg/kg, iv. The settings on record: in vivo. Further details: dose 1 mg/kg, time infinity, route intravenous. The data set is classed as ADME, organism-based.
The nature of data set [20]: Cmax in C57BL/6 mouse plasma at 10 mg/kg administered through oral gavage. In kind it is ADME, organism-based. Set-up: dose 10 mg/kg, route oral.

The values below come from ChEMBL document CHEMBL3769405, “Discovery of Potent and Selective Inhibitors of Phosphodiesterase 1 for the Treatment of Cognitive Impairment Associated with Neurodegenerative and Neuropsychiatric Diseases” (J Med Chem, 2016).

`CN1C(=O)c2c(nn(Cc3ccc(-c4cccc(F)n4)cc3)c2Nc2ccccc2)N2C1=N[C@@H]1CCC[C@@H]12.O=P(O)(O)O` [LENRISPODUN PHOSPHATE]: the CLint scaled in data set [1] was 4.68 L/h/kg. Besides, the figures for the AUC(0-t) in [2] and in [7] were 0.826 µg·h/mL and 0.588 µg·h/mL, respectively. For the same molecule, the Cmax amounted to 0.387 µg/mL in data set [3], 0.252 µg/mL in data set [17] and 0.49 µg/mL in data set [20]. The logD worked out at 4.41 in data set [4] and 1.27 in data set [9]. The minimal effective dose in [5] was 3 mg/kg. In data set [6], the Tmax is 0.75 h. For the same molecule, the total exposure AUC(0-inf) came out at 0.802 µg·h/mL in [8] and 0.3 µg·h/mL in [19]. Also, the inhibition constant (Ki) in data set [10] was 0.058 nM; in [12], 630 nM. The molecule further had a solubility in data set [11] of 22 µM. In addition, the half-life in data set [13] is 1.4 h; in [16], 1.5 h. In addition, the bioavailability in data set [14] was found to be 28%. This molecule had a clearance in data set [15] of 3.3 L/h/kg. The molecule further had a distribution volume (Vd) in data set [18] of 6.83 L/kg.

What is called AUC(0-t) is the area under the concentration-time curve up to a stated or last time point. One may read the Cmax as the peak of the concentration-time curve. A word on the logD: it is the decadic logarithm of the distribution of all forms, ionised or not, between an organic phase and buffer at a given pH. Read a low logD as lower lipophilicity. By Tmax is commonly meant the time from dosing to the highest level. By AUC(0-inf) is commonly meant the area under the concentration-time curve extrapolated to infinity. Low readings indicate less exposure, high ones more exposure. One may read the Ki as the equilibrium dissociation constant of an inhibitor or competing ligand from its target. One may read the solubility as the concentration that dissolves in the medium under given conditions. A higher solubility goes with much dissolved substance. What is called half-life is the time needed for the level to fall by half in the phase considered. A low value points to fast loss. The bioavailability is dose-corrected exposure relative to a reference, in per cent. Higher therefore signals much systemic uptake. What is called clearance is the rate of elimination divided by the concentration. Low readings indicate a low capacity for elimination, high ones a high capacity for elimination. A word on the Vd: it is the apparent volume that relates the amount in the body to the concentration in plasma or blood. A higher Vd goes with wide distribution into tissue.
